The subject of test [1] is Macrophage cell line. Nature of the test: Effect on lipid mediator formation in human M2-like phenotype MDM cells by measuring PGE2 formation at 10 uM pre-incubated for 15 mins followed by SACM stimulation and measured after 90 mins by UPLC-MS/MS analysis relative to control. It is filed as functional. Conditions: time 105 min, 1.75 h.
Test [2] deals with Macrophage cell line. Briefly: Effect on lipid mediator formation in human M1-like phenotype MDM cells by measuring PGD2 formation at 10 uM pre-incubated for 15 mins followed by SACM stimulation and measured after 90 mins by UPLC-MS/MS analysis relative to control. It is filed as functional. Conditions: time 105 min, 1.75 h.
The subject of test [3] is Macrophage cell line. Nature of the test: Effect on lipid mediator formation in human M2-like phenotype MDM cells by measuring t-LTB4 formation at 10 uM pre-incubated for 15 mins followed by SACM stimulation and measured after 90 mins by UPLC-MS/MS analysis relative to control. It is filed as functional. The settings on record: time 105 min, 1.75 h.
The test system of test [4] is Macrophage cell line. Nature of the test: Effect on lipid mediator formation in human M1-like phenotype MDM cells by measuring 12-HEPE formation at 10 uM pre-incubated for 15 mins followed by SACM stimulation and measured after 90 mins by UPLC-MS/MS analysis (reference value: 40 +/- 9 pg/ml). The format is functional. Conditions: time 105 min, 1.75 h.
For test [5], the system named is Macrophage cell line. Briefly: Effect on lipid mediator formation in human M2-like phenotype MDM cells by measuring DHA formation at 10 uM pre-incubated for 15 mins followed by SACM stimulation and measured after 90 mins by UPLC-MS/MS analysis relative to control. The format is functional. Conditions: time 105 min, 1.75 h.
Test [6] has as its system Macrophage cell line. Briefly: Effect on lipid mediator formation in human M2-like phenotype MDM cells by measuring 12-HETE formation at 10 uM pre-incubated for 15 mins followed by SACM stimulation and measured after 90 mins by UPLC-MS/MS analysis (reference value: 3325 +/- 789 pg/ml). The format is functional. The settings on record: time 105 min, 1.75 h.
In test [7] the test system is Macrophage cell line. Briefly: Effect on lipid mediator formation in human M2-like phenotype MDM cells by measuring RvD5 formation at 10 uM pre-incubated for 15 mins followed by SACM stimulation and measured after 90 mins by UPLC-MS/MS analysis relative to control. Conditions: time 105 min, 1.75 h. It is filed as functional.
For test [8], the target named is T1, Polyunsaturated fatty acid 5-lipoxygenase (Homo sapiens, UniProt P09917).
T1 sequence (P09917 whole entry): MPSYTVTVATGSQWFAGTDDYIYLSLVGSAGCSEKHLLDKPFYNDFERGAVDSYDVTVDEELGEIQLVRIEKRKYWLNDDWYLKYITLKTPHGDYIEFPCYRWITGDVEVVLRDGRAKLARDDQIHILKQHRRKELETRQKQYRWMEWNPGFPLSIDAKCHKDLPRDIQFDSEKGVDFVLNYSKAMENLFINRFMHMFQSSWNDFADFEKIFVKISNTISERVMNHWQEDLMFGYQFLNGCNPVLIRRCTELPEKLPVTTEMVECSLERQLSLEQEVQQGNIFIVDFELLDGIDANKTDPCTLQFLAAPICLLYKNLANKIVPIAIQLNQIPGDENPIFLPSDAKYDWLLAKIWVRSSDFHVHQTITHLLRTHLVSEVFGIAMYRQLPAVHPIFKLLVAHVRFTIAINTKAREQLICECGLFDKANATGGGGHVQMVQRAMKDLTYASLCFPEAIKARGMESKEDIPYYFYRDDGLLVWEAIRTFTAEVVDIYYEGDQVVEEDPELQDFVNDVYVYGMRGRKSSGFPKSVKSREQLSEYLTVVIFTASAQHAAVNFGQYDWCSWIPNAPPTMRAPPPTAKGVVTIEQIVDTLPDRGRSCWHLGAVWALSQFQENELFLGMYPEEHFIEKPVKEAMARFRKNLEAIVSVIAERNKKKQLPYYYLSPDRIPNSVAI
Briefly: Inhibition of 5-LOX in human Neutrophil using arachidonic acid as substrate preincubated with compound for 15 mins followed by substrate and A23187 addition measured after 10 mins by RP-HPLC analysis. It is filed as cell-based.

The subject of test [9] is Macrophage cell line. Briefly: Effect on lipid mediator formation in human M2-like phenotype MDM cells by measuring EPA formation at 10 uM pre-incubated for 15 mins followed by SACM stimulation and measured after 90 mins by UPLC-MS/MS analysis (reference value: 23813 +/- 1138 pg/ml). It is filed as functional. Conditions: time 105 min, 1.75 h.
In test [10] the test system is Macrophage cell line. Briefly: Effect on lipid mediator formation in human M1-like phenotype MDM cells by measuring 17-HDHA formation at 10 uM pre-incubated for 15 mins followed by SACM stimulation and measured after 90 mins by UPLC-MS/MS analysis (reference value: 360 +/- 89 pg/ml). The settings on record: time 105 min, 1.75 h. It is filed as functional.
Test [11] deals with T1, Polyunsaturated fatty acid 5-lipoxygenase. Briefly: Inhibition of 5-LOX in human Neutrophil preincubated with compound for 15 mins followed by A23187 addition measured after 10 mins by RP-HPLC analysis. The format is cell-based.
For test [12] the target is unchanged. Nature of the test: Inhibition of human recombinant 5-LOX expressed in Escherichia coli BL21(DE3) using arachidonic acid as substrate preincubated with compound for 15 mins followed by substrate and CaCl2 addition measured after 10 mins by RP-HPLC analysis.
For test [13], the system named is Macrophage cell line. Nature of the test: Effect on lipid mediator formation in human M2-like phenotype MDM cells by measuring TXB2 formation at 10 uM pre-incubated for 15 mins followed by SACM stimulation and measured after 90 mins by UPLC-MS/MS analysis (reference value: 4488 +/- 452 pg/ml). It is filed as functional. The settings on record: time 105 min, 1.75 h.

The test system of test [14] is Macrophage cell line. Briefly: Effect on lipid mediator formation in human M2-like phenotype MDM cells by measuring 12-HEPE formation at 10 uM pre-incubated for 15 mins followed by SACM stimulation and measured after 90 mins by UPLC-MS/MS analysis (reference value: 361 +/- 75 pg/ml). It is filed as functional. Conditions: time 105 min, 1.75 h.
Another test deals with Neutrophil. Briefly: Inhibition of ROS production in PMA-induced human Neutrophil cells at 1 uM incubated for 10 mins by DCFH-DA dye based fluorometric assay. It is filed as functional, cell-based.
The test system of test [15] is Macrophage cell line. Briefly: Effect on lipid mediator formation in human M2-like phenotype MDM cells by measuring t-LTB4 formation at 10 uM pre-incubated for 15 mins followed by SACM stimulation and measured after 90 mins by UPLC-MS/MS analysis (reference value: 426 +/- 49 pg/ml). Conditions: time 105 min, 1.75 h. The format is functional.
The test system of test [16] is Macrophage cell line. Nature of the test: Effect on lipid mediator formation in human M1-like phenotype MDM cells by measuring DHA formation at 10 uM pre-incubated for 15 mins followed by SACM stimulation and measured after 90 mins by UPLC-MS/MS analysis relative to control. It is filed as functional. Conditions: time 105 min, 1.75 h.
Test [17] has as its system Macrophage cell line. Briefly: Effect on lipid mediator formation in human M2-like phenotype MDM cells by measuring 14-HDHA formation at 10 uM pre-incubated for 15 mins followed by SACM stimulation and measured after 90 mins by UPLC-MS/MS analysis relative to control. Conditions: time 105 min, 1.75 h. The format is functional.
In test [18] the target is T2, Polyunsaturated fatty acid 5-lipoxygenase (Homo sapiens) (UniProt P09917).
T2 sequence (whole entry): T1 sequence (P09917 whole entry)
Briefly: Inhibition of 5-LOX in human Neutrophil at 10 uM using arachidonic acid as substrate preincubated with compound for 15 mins followed by substrate and A23187 addition measured after 10 mins by RP-HPLC analysis relative to control. The format is cell-based. The settings on record: time 25.0 min.

In test [19] the test system is Macrophage cell line. Briefly: Effect on lipid mediator formation in human M1-like phenotype MDM cells by measuring PGE2 formation at 10 uM pre-incubated for 15 mins followed by SACM stimulation and measured after 90 mins by UPLC-MS/MS analysis (reference value: 1789 +/- 871 pg/ml). The format is functional. Conditions: time 105 min, 1.75 h.
Test [20] has as its system Macrophage cell line. Briefly: Effect on lipid mediator formation in human M2-like phenotype MDM cells by measuring RvD1 formation at 10 uM pre-incubated for 15 mins followed by SACM stimulation and measured after 90 mins by UPLC-MS/MS analysis (reference value: 5 +/- 2 pg/ml). Conditions: time 105 min, 1.75 h. The format is functional.

The source made the active and inactive calls. The rule behind the calls is not given here.

A word on the IC50: it is the concentration needed to halve the response being measured. The term inhibition denotes the relative decrease from the control value, in per cent. For `Oc1ccc(CCC2CCC(c3ccc(O)cc3)CO2)cc1` (configuration not stated), the Activity with Macrophage cell line [1] was 147%; with Macrophage cell line [2], 88%; with Macrophage cell line [3], 20%; with Macrophage cell line [4], 36 pg/mL; with Macrophage cell line [5], 107%; with Macrophage cell line [6] it was 4047 pg/mL. Further, the Activity was 105% with Macrophage cell line [7]; 28427 pg/mL in the test on Macrophage cell line [9]; 485 pg/mL with Macrophage cell line [10]; 3850 pg/mL in the test with Macrophage cell line [13]; 462 pg/mL with Macrophage cell line [14]; 84 pg/mL in the test on Macrophage cell line [15]. Further, the Activity in the test with Macrophage cell line [16] came out at 94%; in the test on Macrophage cell line [17], 139%; with Macrophage cell line [19], 1236 pg/mL; with Macrophage cell line [20], 4 pg/mL. Also, the values for the concentration for half-maximal inhibition (IC50) in test [8], in test [11] and in test [12] were 2.1 µM, 1.1 µM and more than 10 µM, respectively. Further, in the test with Neutrophil, the inhibition entry is “inactive”. Further, the inhibition in test [18] was more than 50%.

For the molecule `COc1ccc(C2=C/C(=C/c3ccc(O)cc3O)C(=O)O2)cc1`, the Activity in the test with Macrophage cell line [1] was determined as 259%; with Macrophage cell line [2] it was 157%; with Macrophage cell line [3] it was 11%; with Macrophage cell line [4], 37 pg/mL; in the test on Macrophage cell line [5], 106%; in the test on Macrophage cell line [6], 3796 pg/mL. Also, the Activity amounted to 167% in the test on Macrophage cell line [7]; 24465 pg/mL in the test with Macrophage cell line [9]; 380 pg/mL in the test with Macrophage cell line [10]; 3416 pg/mL with Macrophage cell line [13]; 520 pg/mL with Macrophage cell line [14]; 48 pg/mL with Macrophage cell line [15]. The Activity in the test with Macrophage cell line [16] stood at 108%; with Macrophage cell line [17] it was 179%; in the test on Macrophage cell line [19], 1656 pg/mL; in the test with Macrophage cell line [20], 6 pg/mL. In addition, the IC50 in [8] is 0.9 µM; in test [11] it was 4.8 µM; in [12] it was more than 10 µM. The inhibition result in the test with Neutrophil was “inactive”. Besides, the inhibition in test [18] is more than 50%.
